Legend:
[1] = Stability HPLC data summary of Form A1 of valbenazine oxalate (appearance, assay, HPLC, chiral HPLC, moisture on storage); assay type: physicochemical; details: 2~8° C.; for Appearance: double PE bags sealed in laminated aluminum foil bag
Excerpt: Stability Data of Form A1 of Valbenazine Oxalate [table]

[2] = Stability of valbenazine salts, general statement

Substance: valbenazine oxalate [Form A1 of valbenazine oxalate]
- Assay (Anhydrous) ([1]; 0 months): 100.1%
- Chiral HPLC Chiral imp-1 ([1]; 0 months): 0.01%
- Chiral HPLC Chiral imp-2 ([1]; 0 months): 0.04%
- Chiral HPLC Chiral imp-3 ([1]; 0 months): 0.03%
- Chiral HPLC Valbenazine ([1]; 0 months): 99.93%
- HPLC Imp-1 (LSI) ([1]; 0 months): 0.03%
- HPLC Imp-2 ([1]; 0 months): 0.01%
- HPLC Imp-3 ([1]; 0 months): 0.02%
- HPLC Imp-4 ([1]; 0 months): 0.02%
- HPLC Imp-5 ([1]; 0 months): 0.01%
- HPLC Imp-7 ([1]; 0 months): 0.01%
- HPLC Valbenazine ([1]; 0 months): 99.81%
- Moisture ([1]; 0 months): 0.12%
- Assay (Anhydrous) ([1]; 0.5 months): 100.8%
- Chiral HPLC Chiral imp-1 ([1]; 0.5 months): 0.01%
- Chiral HPLC Chiral imp-2 ([1]; 0.5 months): 0.04%
- Chiral HPLC Chiral imp-3 ([1]; 0.5 months): 0.03%
- Chiral HPLC Valbenazine ([1]; 0.5 months): 99.93%
- HPLC Imp-1 (LSI) ([1]; 0.5 months): 0.03%
- HPLC Imp-3 ([1]; 0.5 months): 0.03%
- HPLC Imp-5 ([1]; 0.5 months): 0.01%
- HPLC Imp-7 ([1]; 0.5 months): 0.02%
- HPLC Valbenazine ([1]; 0.5 months): 99.84%
- Moisture ([1]; 0.5 months): 0.2%
- Assay (Anhydrous) ([1]; 1 months): 101.0%
- Chiral HPLC Chiral imp-1 ([1]; 1 months): 0.01%
- Chiral HPLC Chiral imp-2 ([1]; 1 months): 0.04%
- Chiral HPLC Valbenazine ([1]; 1 months): 99.95%
- HPLC Imp-1 (LSI) ([1]; 1 months): 0.03%
- HPLC Imp-2 ([1]; 1 months): 0.01%
- HPLC Imp-3 ([1]; 1 months): 0.02%
- HPLC Imp-4 ([1]; 1 months): 0.01%
- HPLC Imp-5 ([1]; 1 months): 0.01%
- HPLC Imp-7 ([1]; 1 months): 0.01%
- HPLC Valbenazine ([1]; 1 months): 99.84%
- Moisture ([1]; 1 months): 0.19%
- Assay (Anhydrous) ([1]; 3 months): 100.33%
- Chiral HPLC Chiral imp-1 ([1]; 3 months): 0.01%
- Chiral HPLC Chiral imp-2 ([1]; 3 months): 0.07%
- Chiral HPLC Chiral imp-3 ([1]; 3 months): 0.02%
- Chiral HPLC Valbenazine ([1]; 3 months): 99.91%
- HPLC Imp-1 (LSI) ([1]; 3 months): 0.04%
- HPLC Imp-2 ([1]; 3 months): 0.02%
- HPLC Imp-3 ([1]; 3 months): 0.04%
- HPLC Imp-4 ([1]; 3 months): 0.03%
- HPLC Imp-5 ([1]; 3 months): 0.02%
- HPLC Imp-7 ([1]; 3 months): 0.01%
- HPLC Valbenazine ([1]; 3 months): 99.78%
- Moisture ([1]; 3 months): 0.4%
- Appearance ([1]; 0 months): White
- Appearance ([1]; 0.5 months): White solid
- Appearance ([1]; 1 months): White solid
- Appearance ([1]; 3 months): White solid
- stability (in words) [2]: good stability
